Results on 29 compounds are retold here after ChEMBL document CHEMBL4196043, “Discovery and optimization of 2-thio-5-amino substituted benzoquinones as potent anticancer agents” (Eur J Med Chem, 2018).

pIC50: −log10 of the molar value.

Data set [1] has as its system PC-3. As to the kind of experiment: Growth inhibition of human PC3 cells at 10 uM after 48 hrs by MTS assay. The format is functional. The following applies: PC-3, 48 h, read-out: GI. (Formazan colour is commonly taken as a measure of viable cells.)
Data set [2] concerns PC-3. The data set can be described thus: Antiproliferative activity against human PC3 cells after 48 hrs by MTS assay. The following applies: PC-3, 48 h. In kind it is functional, cell-based.
A short description of data set [3]: Aqueous solubility of the compound in water by HPLC-UV spectrophotometric analysis. In kind it is physicochemical.
For data set [4], the system named is A549. As to the kind of experiment: Growth inhibition of human A549 cells at 10 uM after 48 hrs by MTS assay. The note with it: A549, 48 h, read-out: GI. The format is functional.
For another data set, the system named is BGC-823. The data set can be described thus: Growth inhibition of human BGC823 cells at 10 uM. In kind it is functional. The following applies: read-out: GI.
A short description of data set [5]: Selectivity index, ratio of IC50 for human HELF to IC50 for human PC3 cells. The format is toxicity. The following applies: HELF cells and PC3 cells, read-out: Ratio IC50.
A further data set concerns A-375. The data set can be described thus: Antiproliferative activity against human A375 cells after 48 hrs by MTS assay. The format is functional, cell-based. The following applies: A-375, 48 h.
The subject of the next data set is MCF7. The data set can be described thus: Antiproliferative activity against human MCF7 cells after 48 hrs by MTS assay. The format is functional, cell-based. The note with it: MCF7, 48 h.
Another data set has as its system SW480. As to the kind of experiment: Antiproliferative activity against human SW480 cells after 48 hrs by MTS assay. The format is functional, cell-based. The following applies: SW480, 48 h.
Data set [6] in a line: Antiproliferative activity against human HELF after 48 hrs by MTS assay.
The test system of data set [7] is A549. As to the kind of experiment: Antiproliferative activity against human A549 cells after 48 hrs by MTS assay. The format is functional, cell-based. The following applies: A549, 48 h.
A further data set relates to HCT-116. The data set can be described thus: Antiproliferative activity against human HCT116 cells after 48 hrs by MTS assay. The format is functional, cell-based. The following applies: HCT-116, 48 h.

With `CC(O)CNC1=CC(=O)C(SC/C=C/c2ccccc2)=CC1=O` (stereo not drawn), the inhibition of growth at 10 µM with PC-3 [1] worked out at 3.75%.

By pIC50 is commonly meant −log10 of the IC50, conventionally taken in molar units. `C=CCSC1=CC(=O)C(NCCCN)=CC1=O`: the pIC50 with PC-3 [2] is 5.80. Turning to `COc1ccccc1/C=C/CSC1=CC(=O)C(NCC(C)O)=CC1=O` (stereo not drawn), the inhibition of growth at 10 µM in the data set on PC-3 [1] turned out to be 5.9%. One may read the solubility as the dissolved amount per volume that the medium holds. A high value points to a readily soluble substance. In turn, `C=CCSC1=CC(=O)C(N[C@H]2CC[C@H](O)CC2)=CC1=O` had a negative logarithm of the IC50 (pIC50) in the data set on PC-3 [2] of 6.48. The compound also showed a solubility in data set [3] of under 1 mg/mL. `C=CCSC1=CC(=O)C(NCCS(C)(=O)=O)=CC1=O`: the pIC50 in the data set with PC-3 [2] was 5.81. On the same count and under the same terms, to `C=CCSC1=CC(=O)C(NCCN2CCNC2=O)=CC1=O` belongs 5.66. Take `C=C(CSC1=CC(=O)C(NCC(C)O)=CC1=O)c1ccccc1` (stereo not drawn): the inhibition of growth at 10 µM in the data set with PC-3 [1] was determined as 11.8%. On to `C=CCSC1=CC(=O)C(NCCCl)=CC1=O`, for which the negative logarithm of the IC50 (pIC50) in the data set on PC-3 [2] was 6.22.

`C=CCSC1=CC(=O)C(NCCCN(C)C)=CC1=O.Cl` gave a negative-log IC50 (pIC50) with PC-3 [2] of 6.04. The compound further returned a solubility in data set [3] of over 200 mg/mL. As to `C/C=C/CSC1=CC(=O)C(NCC(C)O)=CC1=O` (stereo not drawn), the inhibition of growth at 10 µM with PC-3 [1] was determined as 67.6%. Take `C=CCSC1=CC(=O)C(N[C@H]2CC[C@@H](N)CC2)=CC1=O`: the pIC50 with PC-3 [2] is 6.32. In the data set with PC-3 [2], `C=CCSC1=CC(=O)C(NCCC(=O)OC)=CC1=O` gave a pIC50 of 5.33. On the same count and under the same terms, to `C=CCSC1=CC(=O)C(NCCCNCCO)=CC1=O` belongs 5.66.

On to `CC(O)CNC1=CC(=O)C(SC2C=CCCC2)=CC1=O` (stereo not drawn), for which the inhibition of growth at 10 µM in the data set on PC-3 [1] is 46.9%. Consider `C=CCSC1=CC(=O)C(NCCCO)=CC1=O`, for which the pIC50 with PC-3 [2] was 6.17. For `C=CCSC1=CC(=O)C(NCC(O)CO)=CC1=O` (stereo not drawn), in the data set on PC-3 [2], the pIC50 was 5.40. Turning to `C=C(C)CSC1=CC(=O)C(NCC(C)O)=CC1=O` (stereo not drawn), the inhibition of growth at 10 µM in the data set on PC-3 [1] was found to be 61.9%. `C=CCSC1=CC(=O)C(NCC(C)O)=CC1=O` (stereo not drawn): the inhibition of growth at 10 µM in the data set on A549 [4] is 85.5%; in the data set on BGC-823, 88.5%; in the data set on PC-3 [1], 88%. Besides, in the data set with PC-3 [2], the pIC50 is 5.30.

In the case of `C=C(Cl)CSC1=CC(=O)C(NCC(C)O)=CC1=O` (stereo not drawn), the inhibition of growth at 10 µM in the data set on PC-3 [1] came out at 20%. In turn, `C=CCSC1=CC(=O)C(NCCCNC)=CC1=O.Cl` had a pIC50 in the data set with PC-3 [2] of 6.50. The same compound showed a solubility in data set [3] of over 200 mg/mL.

Compound `C=CCSC1=CC(=O)C(NCCCN2CCOCC2)=CC1=O` had a pIC50 with PC-3 [2] of 5.84. Take `CC(O)CNC1=CC(=O)C(SC/C=C/c2ccc(F)cc2)=CC1=O` (stereo not drawn): the inhibition of growth at 10 µM in the data set with PC-3 [1] was 12.2%. `C=CCSC1=CC(=O)C(NCCP(=O)(OCC)OCC)=CC1=O` gave a pIC50 in the data set with PC-3 [2] of 6.15. Turning to `C=CCSC1=CC(=O)C(N[C@H]2CC[C@H](N)CC2)=CC1=O.Cl`, the selectivity ratio in data set [5] came to 47. For the same compound, the pIC50 in the data set with PC-3 [2] was 6.65; in the data set with A-375 it was 6.66; in the data set on MCF7, 6.59; with SW480, 5.91; in [6], 4.98; in the data set on A549 [7], 6.42. Further, the pIC50 in the data set on HCT-116 is 6.39. Moreover, the concentration in solution in [3] (solubility) came to 23.2 mg/mL.

As for `CC(O)CNC1=CC(=O)C(SC/C=C/c2cccnc2)=CC1=O` (stereo not drawn), in the data set on PC-3 [1], the inhibition of growth at 10 µM is 9.45%.

For the compound `C=CCSC1=CC(=O)C(NCCCCO)=CC1=O`, the negative logarithm of the IC50 (pIC50) in the data set with PC-3 [2] is 6.34. `C=CCSC1=CC(=O)C(NCCOCCO)=CC1=O` gave a pIC50 with PC-3 [2] of 6.40. This pIC50 and that of the compound before are within 0.2 log units of each other. Still for that read-out and setting: the figure for `C=CCSC1=CC(=O)C(NCCNC(C)=O)=CC1=O` is 5.56; for `C=CCSC1=CC(=O)C(NCCO)=CC1=O` it is 6.14.
